Source: patent publication US10322111B2, “Chemokine receptor binding heterocyclic compounds with enhanced efficacy” (Genzyme Corporation, priority 2001, dated 2019)
Read-outs that look alike come from different tables or passages of the source.

System: CFU-GM, BFU-E and CFU-GEMM progenitor cells
Conditions: 80 μg/kg s.c.; for % CHG, BFU-E, methylcellulose culture / % CHG, CFU-GEMM, methylcellulose culture / % CHG, CFU-GM, methylcellulose culture / mean fold change compared to T 0, BFU-E, methylcellulose culture, MEAN / mean fold change compared to T 0, CFU-GEMM, methylcellulose culture, MEAN / mean fold change compared to T 0, CFU-GM, methylcellulose culture, MEAN: all five donors

## c1cc(CN2CCCNCCNCCCNCC2)ccc1CN1CCCNCCNCCCNCC1 [AMD3100, 1,1′-[1,4-phenylene-bis(methylene)]-bis-1,4,8,11-tetraazacyclotetradecane]
P3, T = 24 h after injection
  fold change from T=0, progenitors CFU-GM, methylcellulose culture: 1.43 fold
P4, T = 1 h after injection
  Absolute # of Progenitors per ML, BFU-E: 672 per ML
  Absolute # of Progenitors per ML, CFU-GEMM: 199 per ML
  Absolute # of Progenitors per ML, CFU-GM: 947 per ML
  fold change from T=0, progenitors BFU-E, methylcellulose culture: 1.46 fold
  fold change from T=0, progenitors CFU-GEMM, methylcellulose culture: 1.96 fold
  fold change from T=0, progenitors CFU-GM, methylcellulose culture: 6.87 fold
P4, T = 3 h after injection
  Absolute # of Progenitors per ML, BFU-E: 1195 per ML
  Absolute # of Progenitors per ML, CFU-GEMM: 519 per ML
  Absolute # of Progenitors per ML, CFU-GM: 2857 per ML
  fold change from T=0, progenitors BFU-E, methylcellulose culture: 2.60 fold
  fold change from T=0, progenitors CFU-GEMM, methylcellulose culture: 5.14 fold
  fold change from T=0, progenitors CFU-GM, methylcellulose culture: 20.72 fold
P4, T = 6 h after injection
  Absolute # of Progenitors per ML, BFU-E: 1533 per ML
  Absolute # of Progenitors per ML, CFU-GEMM: 920 per ML
  Absolute # of Progenitors per ML, CFU-GM: 3936 per ML
  fold change from T=0, progenitors BFU-E, methylcellulose culture: 3.34 fold
  fold change from T=0, progenitors CFU-GEMM, methylcellulose culture: 9.10 fold
  fold change from T=0, progenitors CFU-GM, methylcellulose culture: 28.54 fold
P4, T = 9 h after injection
  Absolute # of Progenitors per ML, BFU-E: 1348 per ML
  Absolute # of Progenitors per ML, CFU-GEMM: 457 per ML
  Absolute # of Progenitors per ML, CFU-GM: 1942 per ML
  fold change from T=0, progenitors BFU-E, methylcellulose culture: 2.93 fold
  fold change from T=0, progenitors CFU-GEMM, methylcellulose culture: 4.52 fold
  fold change from T=0, progenitors CFU-GM, methylcellulose culture: 14.08 fold
P4, T = 24 h after injection
  Absolute # of Progenitors per ML, BFU-E: 362 per ML
  Absolute # of Progenitors per ML, CFU-GEMM: 99 per ML
  Absolute # of Progenitors per ML, CFU-GM: 208 per ML
  fold change from T=0, progenitors BFU-E, methylcellulose culture: 0.79 fold
  fold change from T=0, progenitors CFU-GEMM, methylcellulose culture: 0.98 fold
  fold change from T=0, progenitors CFU-GM, methylcellulose culture: 1.51 fold
P5, T = 1 h after injection
  Absolute # of Progenitors per ML, BFU-E: 730 per ML
  Absolute # of Progenitors per ML, CFU-GEMM: 169 per ML
  Absolute # of Progenitors per ML, CFU-GM: 481 per ML
  fold change from T=0, progenitors BFU-E, methylcellulose culture: 2.13 fold
  fold change from T=0, progenitors CFU-GEMM, methylcellulose culture: 3.07 fold
  fold change from T=0, progenitors CFU-GM, methylcellulose culture: 2.84 fold
P5, T = 3 h after injection
  Absolute # of Progenitors per ML, BFU-E: 1288 per ML
  Absolute # of Progenitors per ML, CFU-GEMM: 244 per ML
  Absolute # of Progenitors per ML, CFU-GM: 1423 per ML
  fold change from T=0, progenitors BFU-E, methylcellulose culture: 3.75 fold
  fold change from T=0, progenitors CFU-GM, methylcellulose culture: 8.40 fold
P5, T = 6 h after injection
  Absolute # of Progenitors per ML, BFU-E: 3208 per ML
  Absolute # of Progenitors per ML, CFU-GEMM: 987 per ML
  Absolute # of Progenitors per ML, CFU-GM: 3454 per ML
  fold change from T=0, progenitors BFU-E, methylcellulose culture: 9.35 fold
  fold change from T=0, progenitors CFU-GEMM, methylcellulose culture: 17.92 fold
  fold change from T=0, progenitors CFU-GM, methylcellulose culture: 20.39 fold
P5, T = 9 h after injection
  Absolute # of Progenitors per ML, BFU-E: 1731 per ML
  Absolute # of Progenitors per ML, CFU-GEMM: 526 per ML
  Absolute # of Progenitors per ML, CFU-GM: 1710 per ML
  fold change from T=0, progenitors BFU-E, methylcellulose culture: 5.05 fold
  fold change from T=0, progenitors CFU-GEMM, methylcellulose culture: 9.55 fold
  fold change from T=0, progenitors CFU-GM, methylcellulose culture: 10.09 fold
P5, T = 24 h after injection
  Absolute # of Progenitors per ML, BFU-E: 495 per ML
  Absolute # of Progenitors per ML, CFU-GEMM: 124 per ML
  Absolute # of Progenitors per ML, CFU-GM: 310 per ML
  fold change from T=0, progenitors BFU-E, methylcellulose culture: 1.44 fold
  fold change from T=0, progenitors CFU-GEMM, methylcellulose culture: 2.25 fold
  fold change from T=0, progenitors CFU-GM, methylcellulose culture: 1.83 fold
T = 1 h after injection
  % CHG, BFU-E, methylcellulose culture: 98.9%
  % CHG, CFU-GEMM, methylcellulose culture: 131.8%
  % CHG, CFU-GM, methylcellulose culture: 376.7%
  mean fold change compared to T 0, BFU-E, methylcellulose culture, MEAN: 1.99 fold
  mean fold change compared to T 0, CFU-GEMM, methylcellulose culture, MEAN: 2.32 fold
  mean fold change compared to T 0, CFU-GM, methylcellulose culture, MEAN: 4.77 fold
T = 3 h after injection
  % CHG, BFU-E, methylcellulose culture: 221.3%
  % CHG, CFU-GEMM, methylcellulose culture: 332.5%
  % CHG, CFU-GM, methylcellulose culture: 1266.5%
  mean fold change compared to T 0, BFU-E, methylcellulose culture, MEAN: 3.21 fold
  mean fold change compared to T 0, CFU-GEMM, methylcellulose culture, MEAN: 4.33 fold
  mean fold change compared to T 0, CFU-GM, methylcellulose culture, MEAN: 13.66 fold
T = 6 h after injection
  % CHG, BFU-E, methylcellulose culture: 500.5%
  % CHG, CFU-GEMM, methylcellulose culture: 907.2%
  % CHG, CFU-GM, methylcellulose culture: 2070.6%
  mean fold change compared to T 0, BFU-E, methylcellulose culture, MEAN: 6.01 fold
  mean fold change compared to T 0, CFU-GEMM, methylcellulose culture, MEAN: 10.07 fold
  mean fold change compared to T 0, CFU-GM, methylcellulose culture, MEAN: 21.71 fold
T = 9 h after injection
  % CHG, BFU-E, methylcellulose culture: 334.4%
  % CHG, CFU-GEMM, methylcellulose culture: 425.4%
  % CHG, CFU-GM, methylcellulose culture: 947.3%
  mean fold change compared to T 0, BFU-E, methylcellulose culture, MEAN: 4.34 fold
  mean fold change compared to T 0, CFU-GEMM, methylcellulose culture, MEAN: 5.25 fold
  mean fold change compared to T 0, CFU-GM, methylcellulose culture, MEAN: 10.47 fold
T = 24 h after injection
  % CHG, BFU-E, methylcellulose culture: 26.3%
  % CHG, CFU-GEMM, methylcellulose culture: 53.2%
  % CHG, CFU-GM, methylcellulose culture: 55.5%
  mean fold change compared to T 0, BFU-E, methylcellulose culture, MEAN: 1.26 fold
  mean fold change compared to T 0, CFU-GEMM, methylcellulose culture, MEAN: 1.53 fold
  mean fold change compared to T 0, CFU-GM, methylcellulose culture, MEAN: 1.56 fold
